Values quoted from earlier work, collected in publication PMC12932482 (Frontiers in Pharmacology, 2026).

Details: Obs, +CLA (with clarithromycin); ref Rengelshausen et al. (2003)

For C[C@H]1O[C@@H](O[C@H]2[C@@H](O)C[C@H](O[C@H]3[C@@H](O)C[C@H](O[C@H]4CC[C@@]5(C)[C@H](CC[C@@H]6[C@@H]5C[C@@H](O)[C@]5(C)[C@@H](C7=CC(=O)OC7)CC[C@]65O)C4)O[C@@H]3C)O[C@@H]2C)C[C@H](O)[C@@H]1O [digoxin], the “AUC0–3h” value is listed as 11 ng·h/mL.
